Results published in PMC8161055, “Synthesis and α-Glucosidase Inhibition Activity of 2-[3-(Benzoyl/4-bromobenzoyl)-4-hydroxy-1,1-dioxido-2H-benzo[e][1,2]thiazin-2-yl]-N-arylacetamides: An In Silico and Biochemical Approach” (Molecules, 2021).
Like-named read-outs stand apart in the source and are kept apart here.

Columns and labels:
α-glucosidase = target: T1, α-glucosidase (Saccharomyces cerevisiae, UniProt P53341); assay: biochemical; format: biochemical; details: for inhibition at 200 µM: read-out: Inhibitions (%); for effectiveness as inhibitor compared to acarbose: ratio of IC50 values vs acarbose
T1 construct: purchased Sigma-Aldrich, Munich, Germany
Protocol: In vitro analysis of all the synthesized compounds was performed in order to justify the validity of in silico outcomes. Results were found in good agreement with the in silico study. […] A general spectrophotometric technique was used to perform the α-glucosidase inhibition assay with slight modifications. […] The experiment was repeated thrice and inhibition percentages were calculated using the following formula. % Inhibition = [(A control − A sample) / A control] × 100(1) where ‘A’ stands for absorbance.

human 11β-HSD1 = tested on: human 11β-HSD1; set-up: method as in PMID 21212546; details: cited from earlier work

T1 sequence (P53341 whole entry): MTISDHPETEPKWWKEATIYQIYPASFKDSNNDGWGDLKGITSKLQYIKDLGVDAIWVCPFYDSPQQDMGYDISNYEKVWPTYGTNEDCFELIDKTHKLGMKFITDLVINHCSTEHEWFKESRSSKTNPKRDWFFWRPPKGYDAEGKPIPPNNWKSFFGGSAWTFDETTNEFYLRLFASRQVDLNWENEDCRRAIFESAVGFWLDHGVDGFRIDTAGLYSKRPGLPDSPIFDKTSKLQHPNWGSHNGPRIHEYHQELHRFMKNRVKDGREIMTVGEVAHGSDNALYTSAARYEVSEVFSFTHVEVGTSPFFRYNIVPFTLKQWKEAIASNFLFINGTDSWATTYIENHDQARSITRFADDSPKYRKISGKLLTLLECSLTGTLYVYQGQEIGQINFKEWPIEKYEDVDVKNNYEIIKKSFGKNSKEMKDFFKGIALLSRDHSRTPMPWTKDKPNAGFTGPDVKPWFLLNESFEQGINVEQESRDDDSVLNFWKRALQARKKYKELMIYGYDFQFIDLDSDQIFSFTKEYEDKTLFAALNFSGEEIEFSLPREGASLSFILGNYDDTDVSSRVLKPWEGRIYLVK

IC50 (α-glucosidase; PNPG substrate, pH 6.8, 37 °C, read-out: IC50) [µM]	Inhibitions (%) (α-glucosidase; at 200 μM concentration)	Molecule	melting point [°C]	inhibition at 200 µM (α-glucosidase) [%]	IC50 (α-glucosidase) [µM]	effectiveness as inhibitor compared to acarbose (α-glucosidase)	IC50 (human 11β-HSD1) [µM]
58.5	65	2-(3-(4-Bromobenzoyl)-4-hydroxy-1,1-dioxido-2H-benzo[e][1,2]thiazin-2-yl)-N-(4-methoxyphenyl)acetamide [Compound 12m]	–	–	–	–	–
–	–	O=C(C1=C(O)c2ccccc2S(=O)(=O)N1)c1ccccc1 [Compound 9a, (4-Hydroxy-1,1-dioxido-2H-benzo[e][1,2]thiazin-3-yl)(phenyl)methanone]	156 to 157	20	–	–	–
–	–	O=C(C1=C(O)c2ccccc2S(=O)(=O)N1)c1ccc(Br)cc1 [Compound 9b, (4-Bromophenyl)(4-hydroxy-1,1-dioxido-2H-benzo[e][1,2]thiazin-3-yl)methanone]	144 to 146	55	> 100	–	–
–	–	O=C(CN1C(C(=O)c2ccccc2)=C(O)c2ccccc2S1(=O)=O)Nc1ccccc1Cl [Compound 11a, 2-(3-Benzoyl-4-hydroxy-1,1-dioxido-2H-benzo[e][1,2]thiazin-2-yl)-N-(2-chlorophenyl)acetamide]	141 to 142	39	–	–	–
–	–	O=C(CN1C(C(=O)c2ccccc2)=C(O)c2ccccc2S1(=O)=O)Nc1cccc(Cl)c1 [Compound 11b, 2-(3-Benzoyl-4-hydroxy-1,1-dioxido-2H-benzo[e][1,2]thiazin-2-yl)-N-(3-chlorophenyl)acetamide]	182 to 184	32	–	–	–
–	–	O=C(CN1C(C(=O)c2ccccc2)=C(O)c2ccccc2S1(=O)=O)Nc1ccc(Cl)cc1 [Compound 11c, 2-(3-Benzoyl-4-hydroxy-1,1-dioxido-2H-benzo[e][1,2]thiazin-2-yl)-N-(4-chlorophenyl)acetamide]	146 to 148	79	30.6	–	–
–	–	Cc1ccccc1NC(=O)CN1C(C(=O)c2ccccc2)=C(O)c2ccccc2S1(=O)=O [Compound 11d, 2-(3-Benzoyl-4-hydroxy-1,1-dioxido-2H-benzo[e][1,2]thiazin-2-yl)-N-(o-tolyl)acetamide]	165 to 167	10	–	–	–
–	–	Cc1cccc(NC(=O)CN2C(C(=O)c3ccccc3)=C(O)c3ccccc3S2(=O)=O)c1 [Compound 11e, 2-(3-Benzoyl-4-hydroxy-1,1-dioxido-2H-benzo[e][1,2]thiazin-2-yl)-N-(m-tolyl)acetamide]	177 to 178	15	–	–	–
–	–	Cc1ccc(NC(=O)CN2C(C(=O)c3ccccc3)=C(O)c3ccccc3S2(=O)=O)cc1 [Compound 11f, 2-(3-Benzoyl-4-hydroxy-1,1-dioxido-2H-benzo[e][1,2]thiazin-2-yl)-N-(p-tolyl)acetamide]	136 to 137	37	–	–	–
–	–	O=C(CN1C(C(=O)c2ccccc2)=C(O)c2ccccc2S1(=O)=O)Nc1ccccc1[N+](=O)[O-] [Compound 11g, 2-(3-Benzoyl-4-hydroxy-1,1-dioxido-2H-benzo[e][1,2]thiazin-2-yl)-N-(2-nitrophenyl)acetamide]	157 to 158	58	88.1	–	–
–	–	O=C(CN1C(C(=O)c2ccccc2)=C(O)c2ccccc2S1(=O)=O)Nc1cccc([N+](=O)[O-])c1 [Compound 11h, 2-(3-Benzoyl-4-hydroxy-1,1-dioxido-2H-benzo[e][1,2]thiazin-2-yl)-N-(3-nitrophenyl)acetamide]	170 to 172	63	47.1	–	–
–	–	O=C(CN1C(C(=O)c2ccccc2)=C(O)c2ccccc2S1(=O)=O)Nc1ccc([N+](=O)[O-])cc1 [Compound 11i, 2-(3-Benzoyl-4-hydroxy-1,1-dioxido-2H-benzo[e][1,2]thiazin-2-yl)-N-(4-nitrophenyl)acetamide]	194 to 195	77	40.4	–	–
–	–	O=C(CN1C(C(=O)c2ccccc2)=C(O)c2ccccc2S1(=O)=O)Nc1cccc(Br)c1 [Compound 11j, 2-(3-Benzoyl-4-hydroxy-1,1-dioxido-2H-benzo[e][1,2]thiazin-2-yl)-N-(3-bromophenyl)acetamide]	163 to 166	50	> 100	–	–
–	–	O=C(CN1C(C(=O)c2ccccc2)=C(O)c2ccccc2S1(=O)=O)Nc1ccc(Br)cc1 [Compound 11k, 2-(3-Benzoyl-4-hydroxy-1,1-dioxido-2H-benzo[e][1,2]thiazin-2-yl)-N-(4-bromophenyl)acetamide]	150 to 153	13	–	–	–
–	–	COc1ccccc1NC(=O)CN1C(C(=O)c2ccccc2)=C(O)c2ccccc2S1(=O)=O [Compound 11l, 2-(3-Benzoyl-4-hydroxy-1,1-dioxido-2H-benzo[e][1,2]thiazin-2-yl)-N-(2-methoxyphenyl)acetamide]	199 to 200	54	> 100	–	–
–	–	COc1ccc(NC(=O)CN2C(C(=O)c3ccccc3)=C(O)c3ccccc3S2(=O)=O)cc1 [Compound 11m, 2-(3-Benzoyl-4-hydroxy-1,1-dioxido-2H-benzo[e][1,2]thiazin-2-yl)-N-(4-methoxyphenyl)acetamide]	164 to 165	69	–	–	–
–	–	O=C(CN1C(C(=O)c2ccc(Br)cc2)=C(O)c2ccccc2S1(=O)=O)Nc1ccccc1Cl [Compound 12a, 2-(3-(4-Bromobenzoyl)-4-hydroxy-1,1-dioxido-2H-benzo[e][1,2]thiazin-2-yl)-N-(2-chlorophenyl)acetamide]	180 to 181	79	18.2	roughly three-fold	–
–	–	O=C(CN1C(C(=O)c2ccc(Br)cc2)=C(O)c2ccccc2S1(=O)=O)Nc1cccc(Cl)c1 [Compound 12b, 2-(3-(4-Bromobenzoyl)-4-hydroxy-1,1-dioxido-2H-benzo[e][1,2]thiazin-2-yl)-N-(3-chlorophenyl)acetamide]	148 to 150	47	–	–	–
–	–	O=C(CN1C(C(=O)c2ccc(Br)cc2)=C(O)c2ccccc2S1(=O)=O)Nc1ccc(Cl)cc1 [Compound 12c, 2-(3-(4-Bromobenzoyl)-4-hydroxy-1,1-dioxido-2H-benzo[e][1,2]thiazin-2-yl)-N-(4-chlorophenyl)acetamide]	181 to 184	61	> 100	–	–
–	–	Cc1ccccc1NC(=O)CN1C(C(=O)c2ccc(Br)cc2)=C(O)c2ccccc2S1(=O)=O [Compound 12d, 2-(3-(4-Bromobenzoyl)-4-hydroxy-1,1-dioxido-2H-benzo[e][1,2]thiazin-2-yl)-N-(o-tolyl)acetamide]	193 to 194	76	20.8	roughly three-fold	–
–	–	Cc1cccc(NC(=O)CN2C(C(=O)c3ccc(Br)cc3)=C(O)c3ccccc3S2(=O)=O)c1 [Compound 12e, 2-(3-(4-Bromobenzoyl)-4-hydroxy-1,1-dioxido-2H-benzo[e][1,2]thiazin-2-yl)-N-(m-tolyl)acetamide]	143 to 144	71	35.1	–	–
–	–	Cc1ccc(NC(=O)CN2C(C(=O)c3ccc(Br)cc3)=C(O)c3ccccc3S2(=O)=O)cc1 [Compound 12f, 2-(3-(4-Bromobenzoyl)-4-hydroxy-1,1-dioxido-2H-benzo[e][1,2]thiazin-2-yl)-N-(p-tolyl)acetamide]	190 to 192	20	–	–	–
–	–	O=C(CN1C(C(=O)c2ccc(Br)cc2)=C(O)c2ccccc2S1(=O)=O)Nc1ccccc1[N+](=O)[O-] [Compound 12g, 2-(3-(4-Bromobenzoyl)-4-hydroxy-1,1-dioxido-2H-benzo[e][1,2]thiazin-2-yl)-N-(2-nitrophenyl)acetamide]	177 to 178	76	24.2	–	–
–	–	O=C(CN1C(C(=O)c2ccc(Br)cc2)=C(O)c2ccccc2S1(=O)=O)Nc1cccc([N+](=O)[O-])c1 [Compound 12h, 2-(3-(4-Bromobenzoyl)-4-hydroxy-1,1-dioxido-2H-benzo[e][1,2]thiazin-2-yl)-N-(3-nitrophenyl)acetamide]	208 to 209	58	> 100	–	–
–	–	O=C(CN1C(C(=O)c2ccc(Br)cc2)=C(O)c2ccccc2S1(=O)=O)Nc1ccc([N+](=O)[O-])cc1 [Compound 12i, 2-(3-(4-Bromobenzoyl)-4-hydroxy-1,1-dioxido-2H-benzo[e][1,2]thiazin-2-yl)-N-(4-nitrophenyl)acetamide]	210 to 212	33	–	–	–
–	–	O=C(CN1C(C(=O)c2ccc(Br)cc2)=C(O)c2ccccc2S1(=O)=O)Nc1cccc(Br)c1 [Compound 12j, 2-(3-(4-Bromobenzoyl)-4-hydroxy-1,1-dioxido-2H-benzo[e][1,2]thiazin-2-yl)-N-(3-bromophenyl)acetamide]	145 to 147	12	–	–	–
–	–	O=C(CN1C(C(=O)c2ccc(Br)cc2)=C(O)c2ccccc2S1(=O)=O)Nc1ccc(Br)cc1 [Compound 12k, 2-(3-(4-Bromobenzoyl)-4-hydroxy-1,1-dioxido-2H-benzo[e][1,2]thiazin-2-yl)-N-(4-bromophenyl)acetamide]	200 to 203	48	–	–	–
–	–	COc1ccccc1NC(=O)CN1C(C(=O)c2ccc(Br)cc2)=C(O)c2ccccc2S1(=O)=O [Compound 12l, 2-(3-(4-Bromobenzoyl)-4-hydroxy-1,1-dioxido-2H-benzo[e][1,2]thiazin-2-yl)-N-(2-methoxyphenyl)acetamide]	186 to 187	34	–	–	–
–	–	O=C(CN1C(C(=O)Nc2ccccc2)=C(O)c2ccccc2S1(=O)=O)Nc1cccc(C(F)(F)F)c1 [derivative 3]	–	–	–	–	0.041
